Like-named read-outs stand apart in the source and are kept apart here.

One may read the IC50 as the concentration that inhibits the measured activity by half. For orientation: melting point means the temperature of the solid-liquid transition.

Series [1] has as its system COX-2. The note with it: cited from earlier work.
Series [2] has as its system MCF7 cells. Also on record: method as in PMID 31259695. The note with it: quoted from previous publication; cited from earlier work.
The subject of series [3] is HT29 cells. Also on record: method as in PMID 31259695. The note with it: quoted from previous publication; cited from earlier work.
For series [4], the system named is MCF7, A2780 and HT29 cancer cell lines. The arrangement: method as in PMID 31259695. The note with it: read-out: IC50 range against the three cancer cell lines; cited from earlier work.
Series [5] relates to A2780 cells. The arrangement: method as in PMID 31259695. The conditions noted are these: quoted from previous publication; cited from earlier work.
A short description of series [6]: MTT assay against normal MRC5 cells. The format is cell-based. The conditions noted are these: human, 72 h treatment, mean ± SD (n = 3). As for the experimental part: Selectivity of the antiproliferative agents toward cancer cells plays a critical role in the development of these agents as potential anticancer drugs. […] In the current study, all of the new compounds 16a–h were evaluated for the antiproliferative activities against the normal MRC5 cells. […] The aim of this study was to assess the toxicity of the new compounds against normal MRC5 cells. In addition, the IC50 values were also used to calculate the selectivity index (SI) which measures the selective cytotoxicity of the new compounds.
(§1) In the current study, the three cancer cell lines (MCF7, A2780, and HT29) used were obtained from the ATCC. The cell lines were cultured following our previous report. On the other hand, the normal MRC5 cells used in the current study were maintained in Eagle’s minimum essential medium following the previous report.
(§2) The antiproliferative activity was measured using the MTT assay according to the previous report. Briefly, the cancer/normal cell lines were cultured in 96-well (3 × 10^3/well) separately. The cells were treated by tested compounds 16a–h in final concentrations of 0, 0.1, 1, 10, 25, and 50 μM and incubated at 37 °C for 72 h. The MTT was added and the antiproliferative activities (IC50 values) of the new compounds were calculated.
A general note: Formazan colour is commonly taken as a measure of viable cells.

The subject of series [7] is HT29 cells. Put plainly: MTT antiproliferative activity assay, HT29. It is filed as cell-based. The note with it: for IC50: Homo sapiens, HT-29, MTT, 72 h, mean ± S.D. (n = 3); for Selectivity Index HT29: IC50 against MRC5 divided by IC50 against HT29. The procedure:
(§3) The antiproliferative activities of the eight Schiff bases 16a–h against three cancer cell lines (MCF-7, A2780, and HT29) were evaluated using the MTT assay. The selection of these cell lines was done to compare the antiproliferative activities of the new compounds with those of compound 10 [20]. The assay was performed following the previous report.
as §1, §2

The subject of series [8] is A2780 cells. Put plainly: MTT antiproliferative activity assay, A2780. The format is cell-based. The conditions noted are these: for IC50: Homo sapiens, A2780, MTT, 72 h, mean ± S.D. (n = 3); for Selectivity Index A2780: IC50 against MRC5 divided by IC50 against A2780. As for the experimental part:
as §3, §1, §2

Series [9] relates to MCF7 cells. The experiment in a line: MTT antiproliferative activity assay, MCF7. The note with it: for IC50: Homo sapiens, MCF7, MTT, 72 h, mean ± S.D. (n = 3); for Selectivity Index MCF7: IC50 against MRC5 divided by IC50 against MCF7. It is filed as cell-based. The procedure:
as §3, §1, §2

Series [10] has as its system MCF7. The conditions noted are these: Figure 2; cited from earlier work.
The subject of series [11] is MCF7, A2780 and HT29 cancer cell lines. Put plainly: MTT antiproliferative activity assay, three cancer cell lines together. The format is cell-based. The note with it: for Selectivity index range toward the three cancer cell lines: MCF7, A2780, HT29 compared to MRC5 cells; for IC50: MCF7, A2780 and HT29, MTT, 72 h, read-out: IC50 range against the three cancer cell lines. The procedure: as §3, §1, §2

In series [12] the test system is MCF7 cells. The experiment in a line: Cell cycle analysis by flow cytometry. The format is cell-based. The note with it: MCF7 cells, 0.01, 0.05, 0.10 μM, 72 h. As for the experimental part: Cell cycle analysis of MCF7 cells was also performed to investigate the mechanism which mediates the antiproliferative activity of the new compounds. […] The assay was performed according to the previous report. The results are represented in Figure 11.
The effect of compound 16g on the cell cycle distribution of MCF7 was performed following the previous report. Briefly, the cancer cells were cultured for 72 h with 0.00, 0.01, 0.05, and 0.10 μM final concentration of compound 16g. Next, the cells were washed with PBS x1 and trypsinized. The collected cells were spinned and fixed with 70% ethanol. Ribonuclease A was added (15 min) after suspending the cells in cold PBS x1. Following the addition of propidium iodide, analysis of the ice-cold cells was done by flow cytometry (BC, FC500, Brea, CA, USA).
(A flow cytometer gives signals particle by particle.)

The test system of series [13] is A549 cells. The conditions noted are these: cited from earlier work.
Series [14] deals with COX-1. The arrangement: method as in PMID 26994693. The note with it: Figure 2; cited from earlier work.
Series [15] has as its system 5-LOX. Also on record: method as in PMID 26994693. The note with it: Figure 2; cited from earlier work.
Where [16] appears, read: Figure 2, read-out: IC50 (COX-2).

As to `CS(=O)(=O)c1ccc(C2=C(c3ccccc3)C(=O)OC2)cc1` [Rofecoxib, rofecoxib], in series [1] (read-out: IC50 against COX-2), the IC50 was 0.53 µM.

As to `Cc1ccc(NC(=O)c2c(/N=C/c3ccc(Cl)cc3)c(C#N)c3n2CCC3)cc1` [Compound 10], the IC50 in series [2] is 0.33 ± 0.12 µM; in [3], 0.41 ± 0.02 µM; in series [4], 0.33 to 0.44 µM; in series [5], 0.44 ± 0.01 µM.

`Cc1ccc(C=Nc2c(C#N)c3n(c2C(=O)Nc2ccc(F)cc2)CCC3)cc1` [Compound 16d, 7-Cyano-N-(4-fluorophenyl)-6-((4-methylbenzylidene)amino)-2,3-dihydro-1H-pyrrolizine-5-carboxamide] yielded a melting point of 241 to 243 °C. In addition, in [6], inhibition was half-maximal at 2.42 ± 0.56 µM (IC50 at 72 h). In [7], 0.17 ± 0.01 µM corresponded to half-maximal inhibition (IC50) and the “Selectivity Index HT29” value came to 14.24. In addition, in series [8], the IC50 amounted to 21.2 ± 2.43 µM and the “Selectivity Index A2780” value came to 0.11. In series [9], half-maximal inhibition (IC50) was put at 7.05 ± 0.28 µM and the “Selectivity Index MCF7” value came to 0.34.

For the compound `CC1(C)Cc2c(-c3ccccc3)c(-c3ccc(Cl)cc3)c(CC(=O)O)n2C1` [Licofelone], the results for the IC50 in series [10] and in series [1] (setting [16]) were 5.5 µM and 4.7 µM, respectively.

`COc1ccc(NC(=O)c2c(N=Cc3ccc(Cl)cc3)c(C#N)c3n2CCC3)cc1` [Compound 16g, 6-((4-Chlorobenzylidene)amino)-7-cyano-N-(4-methoxyphenyl)-2,3-dihydro-1H-pyrrolizine-5-carboxamide] gave a melting point of 241 to 243 °C. For the same compound, in series [6], inhibition was half-maximal at 5.78 ± 0.63 µM (IC50 at 72 h). Besides, in series [7], the IC50 turned out to be 0.37 ± 0.18 µM and the “Selectivity Index HT29” value is on record as 15.62. The “Selectivity index range toward the three cancer cell lines” value in series [11] is reported as 10.32–578.00. In series [12], the Cell cycle perturbation result was “cell cycle arrest at the G2/M phase”. In series [8], half-maximal inhibition (IC50) was put at 0.56 ± 0.01 µM and the “Selectivity Index A2780” value was determined as 10.32. In series [9], this compound came in with an IC50 of 0.01 µM.

On to `O=C(c1ccccc1)c1ccc2n1CCC2C(=O)O` (stereo not shown) [Ketorolac, ketorolac], for which the IC50 in [13] was around 13 µM; in [1] (setting [16]), 0.14 µM.

Take `CN(C)c1ccc(C=Nc2c(C#N)c3n(c2C(=O)Nc2ccc(F)cc2)CCC3)cc1` [Compound 16b, 7-Cyano-6-((4-(dimethylamino)benzylidene)amino)-N-(4-fluorophenyl)-2,3-dihydro-1H-pyrrolizine-5-carboxamide]: the melting point was 244 to 246 °C. The compound also gave an IC50 at 72 h in [6] of 1.27 ± 0.32 µM. In addition, in [7], the IC50 was determined as 10.2 ± 0.12 µM and the “Selectivity Index HT29” value is listed as 0.12. Moreover, in [8], the IC50 was 0.9 ± 0.08 µM and the “Selectivity Index A2780” value stood at 1.41. For the same compound, in series [9], the IC50 was found to be 0.08 ± 0.01 µM and the “Selectivity Index MCF7” value is recorded as 15.88.

In turn, `N#Cc1c(N=Cc2ccc(F)cc2)c(C(=O)Nc2ccc(F)cc2)n2c1CCC2` [Compound 16f, 7-Cyano-6-((4-fluorobenzylidene)amino)-N-(4-fluorophenyl)-2,3-dihydro-1H-pyrrolizine-5-carboxamide] came in with a melting point of 253 to 255 °C. In addition, in series [6], the IC50 at 72 h stood at 1.34 ± 0.45 µM. For the same compound, in series [7], the IC50 amounted to 0.21 ± 0.12 µM and the “Selectivity Index HT29” value came out at 6.38. In series [8], half-maximal inhibition (IC50) required 0.49 ± 0.12 µM and the “Selectivity Index A2780” value was 2.73. Moreover, in [9], the IC50 turned out to be 40.5 ± 7.7 µM and the “Selectivity Index MCF7” value turned out to be 0.03.

As to `N#Cc1c(N=Cc2ccc(Cl)cc2)c(C(=O)Nc2ccc(F)cc2)n2c1CCC2` [Compound 16h, 6-((4-Chlorobenzylidene)amino)-7-cyano-N-(4-fluorophenyl)-2,3-dihydro-1H-pyrrolizine-5-carboxamide], the melting point was 262 to 264 °C. The compound further returned an IC50 at 72 h in series [6] of 1.6 ± 0.12 µM. Besides, in [7], the IC50 amounted to 0.71 ± 0.29 µM and the “Selectivity Index HT29” value is 2.25. Besides, in series [8], 42.6 ± 3.47 µM corresponded to half-maximal inhibition (IC50) and the “Selectivity Index A2780” value was 0.04. Moreover, in [9], the IC50 turned out to be 26.9 ± 1.67 µM and the “Selectivity Index MCF7” value worked out at 0.06.

For `Cc1ccc(-c2c(-c3ccc(S(C)(=O)=O)cc3)cn3c2CCC3)cc1` [Compound 9], the IC50 is 0.7 µM in [14], 10 µM in series [15] and 0.005 µM in [1] (setting [16]).

As to `COc1ccc(NC(=O)c2c(N=Cc3ccc(F)cc3)c(C#N)c3n2CCC3)cc1` [Compound 16e, 7-Cyano-6-((4-fluorobenzylidene)amino)-N-(4-methoxyphenyl)-2,3-dihydro-1H-pyrrolizine-5-carboxamide], the melting point is 239 to 241 °C. Besides, the IC50 at 72 h in series [6] stood at 2.77 ± 0.09 µM. In series [7], it took 0.34 ± 0.03 µM to reach half-maximal inhibition (IC50) and the “Selectivity Index HT29” value turned out to be 8.15. In [8], it took 1.4 ± 0.21 µM to reach half-maximal inhibition (IC50) and the “Selectivity Index A2780” value came to 1.98. Besides, in [9], the IC50 was 0.15 ± 0.02 µM and the “Selectivity Index MCF7” value is reported as 18.47.

On to `COc1ccc(NC(=O)c2c(N=Cc3ccc(N(C)C)cc3)c(C#N)c3n2CCC3)cc1` [Compound 16a, 7-Cyano-6-((4-(dimethylamino)benzylidene)amino)-N-(4-methoxyphenyl)-2,3-dihydro-1H-pyrrolizine-5-carboxamide], for which the melting point fell in the range of 226 to 228 °C. In addition, the IC50 at 72 h in [6] is 1.27 ± 0.48 µM. In series [7], the IC50 worked out at 0.19 ± 0.02 µM and the “Selectivity Index HT29” value stood at 6.68. Also, in [11], the “Selectivity index range toward the three cancer cell lines” value is 0.03–6.68 and the concentration for half-maximal inhibition (IC50) is 0.19 to 40.5 µM. Further, in series [8], the IC50 stood at 13.9 ± 1.92 µM and the “Selectivity Index A2780” value was found to be 0.09. In series [9], half-maximal inhibition (IC50) required 40.5 ± 10.6 µM and the “Selectivity Index MCF7” value came to 0.03.

`CS(=O)(=O)CCNCc1ccc(-c2ccc3ncnc(Nc4ccc(OCc5cccc(F)c5)c(Cl)c4)c3c2)o1` [Lapatinib, lapatinib, reference compound] displayed an IC50 at 72 h in series [6] of 14.9 ± 2.45 µM. In addition, in [7], 13.2 ± 1.82 µM corresponded to half-maximal inhibition (IC50) and the “Selectivity Index HT29” value came out at 1.13. Further, in series [11], the IC50 lay within 5.98 to 13.2 µM. For the same compound, in [8], the IC50 amounted to 9.86 ± 1.72 µM and the “Selectivity Index A2780” value stood at 1.51. In [9], the IC50 was 5.98 ± 1.31 µM and the “Selectivity Index MCF7” value worked out at 2.49.

Compound `COc1ccc(NC(=O)c2c(N=Cc3ccc(C)cc3)c(C#N)c3n2CCC3)cc1` [Compound 16c, 7-Cyano-N-(4-methoxyphenyl)-6-((4-methylbenzylidene)amino)-2,3-dihydro-1H-pyrrolizine-5-carboxamide] showed a melting point of 231 to 233 °C. For the same compound, inhibition in series [6] was half-maximal at 24.1 ± 1.31 µM (IC50 at 72 h). Also, in [7], half-maximal inhibition (IC50) was put at 2.27 ± 0.61 µM and the “Selectivity Index HT29” value came out at 10.60. In addition, the concentration for half-maximal inhibition (IC50) in [8] was found to be 0.14 ± 0.02 µM. This compound registered an IC50 in [9] of 0.03 ± 0.01 µM.

Turning to `COC1c2c(-c3ccccc3)c(-c3ccc(Cl)cc3)c(C)n2CC1(C)C` (stereo not shown) [Compound 8], the IC50 in series [14] was 0.5 µM; in series [15], 0.06 µM; in series [1] (setting [16]), 7.5 µM.

Values taken from PMC8271847, “In Silico Approach Using Free Software to Optimize the Antiproliferative Activity and Predict the Potential Mechanism of Action of Pyrrolizine-Based Schiff Bases” (Molecules, 2021).
